The values below come from PMC11137182, “Selective and brain-penetrant ACSS2 inhibitors target breast cancer brain metastatic cells” (Frontiers in Pharmacology, 2024).

Where two headings read alike, the source gives them in different places.

The subject of assay [1] is 4T1BR tumor bearing brain slices. As to the kind of experiment: Ex vivo tumor-brain slice model. Details: species or system nu/nu mice. The note with it: 4T1BR brain slices, 100 μM, 6 days, bioluminescence. Here is the method: Ex vivo brain slice tumor model was performed as previously described ([Ciraku et al., 2021]). Briefly, Nu/Nu athymic 4–6 week old mice Charles River Laboratories (Wilmington, MA, United States) were immobilized using the Just for Mice Stereotaxic Frame (Harvard Apparatus, Holliston, MA, United States) and injected intracranially with 5uL of 20,000 cells/uL solution of luciferase tagged MDA-MB-231BR or 4T1BR cells. Tumor growth was monitored via bioluminescence imaging on the IVIS system (Perkin Elmer, Waltman, MA, United States). Organotypic hippocampal cultures were prepared as described previously ([Ciraku et al., 2021]). Briefly, adult mice (4–6 weeks) or mice after 12 days following intracranial injection were decapitated and their brains rapidly removed into ice-cold (4°C) sucrose-aCSF composed of the following (in mM): 280 sucrose, 5 KCl, 2 MgCl2, 1 CaCl2, 20 glucose, 10 HEPES, 5 Na^+-ascorbate, 3 thiourea, 2 Na^+-pyruvate; pH = 7.3. […] Tumor growth was monitored via bioluminescence imaging on the IVIS 200 system (Perkin Elmer), and results were analyzed using Living Image software (Caliper Life Sciences, Waltham, MA, United StatesUnited States). […] Tissues were incubated at 37 ℃ , 5% CO2 for 4 h, and absorbance at 490 nm was measured with a Tecan Spark Microplate reader.

Assay [2] deals with T1, ACSS2 (Homo sapiens, UniProt Q9NR19).
T1 construct: His-tag (N); His-tag (C); made in house; host or cells: E. coli BL21 (DE3) RIL
As to the kind of experiment: SPR binding to immobilized ACSS2. The note with it: mean. The procedure:
Overproduction of ACSS2 was achieved using a prokaryotic expression system. […] The bacterial expressions were then spun down, the supernatant discarded, and the pellets resuspended in 50 mM Tris HCl pH8.0, 800 mM NaCl, 5 mM Imidazole, 2 mM MgCl2, 10% Glycerol, 0.1 mg/mL Lysozyme, 1 mM Protease inhibitor (PMSF). After the cells were lysed via sonication, the sample was subjected to ultracentrifugation, and the clarified lysate was applied to a 5 mL Talon cobalt resin affinity column (Clonetech Laboratories, Mountain View, CA). The bound protein was washed with 300 mL wash buffer 1 (20 mM Tris HCl pH8.0, 800 mM NaCl, 15 mM Imidazole, 5 mM MgCl2, 10% Glycerol, 0.1% CHAPS) and 300 mL wash buffer 2 (20 mM Tris HCl pH8.0, 400 mM NaCl, 18 mM Imidazole, 5 mM MgCl2, 10% Glycerol) prior elution with 20 mM Tris HCl pH8.0, 400 mM NaCl, 300 mM Imidazole, 2 mM MgCl2, 5% Glycerol. Eluted ACSS2 was then dialyzed overnight into 20 mM Tris HCl pH8.0, 150 mM NaCl, 5% Glycerol, concentrated and applied to a Superdex S-200 (16/600) using the same buffer without Glycerol. ACSS2 fractions were pooled, concentrated to 3 mg/mL, aliquoted, and stored at −80°C. hACSS1 was obtained from a commercial vendor (www.mybiosource.com).
All binding assays were performed on a ProteOn XPR36 SPR Protein Interaction Array System (Bio-Rad Laboratories, Hercules, CA, United States). The instrument temperature was set at 25°C for all kinetic analyses. ProteOn GLH sensor chips were preconditioned with two short pulses each (10 s) of 50 mM NaOH, 100 mM HCl, and 0.5% sodium […]. Then, the system was equilibrated with running buffer (1x PBS pH 7.4, 3% DMSO, and 0.005% polysorbate 20). The surface of a GLH sensor chip was activated with a 1:100 dilution of a 1:1 mixture of 1-ethyl-3-(3-dimethylaminopropyl) carbodiimide hydrochloride (0.2 M) and sulfo-N-hydroxysuccinimide (0.05 M). Immediately after chip activation, the human ACSS2 or hACSS1 proteins were prepared at a concentration of 10 μg/mL in 10 mM sodium acetate, pH 5.5, and injected across ligand flow channels for 5 min at a flow rate of 30 μL/min. Then, after unreacted protein had been washed out, excess active ester groups on the sensor surface were capped by a 5 min injection of 1M ethanolamine HCl (pH 8.0) at a flow rate of 5 μL/min. A reference surface was similarly created by immobilizing a nonspecific protein (IgG b12 anti-HIV-1 gp120; was obtained through the NIH AIDS Reagent Program, Division of AIDS, NIAID, NIH: Anti-HIV-1 gp120 Monoclonal (IgG1 b12) from Dr. Dennis Burton and Carlos Barbas) and was used as a background to correct nonspecific binding. […] Data were analyzed using the ProteOn Manager Software version 3.0 (Bio-Rad). The responses from the reference flow cell were subtracted to account for the nonspecific binding and injection artifacts. Experimental data were fitted to a simple 1:1 binding model. Experiments were performed in triplicate to detect kinetic and equilibrium dissociation constants (KD).
On the technique in general: SPR reads the build-up and loss of mass on a sensor chip optically.

The subject of assay [3] is MDA-MB-231BR cells. As to the kind of experiment: BODIPY staining of lipid droplets. Type of assay: cell-based. As to conditions: 100 μM, 48 h. Here is the method: Cells were treated with 5uM BODIPY 493/503 (Invitrogen) and NucBlue® Live reagent (Invitrogen) in PBS for 15 min, washed 2x with 1xPBS, fixed using 4% paraformaldehyde for 30 min at RT in the dark and washed in 1xPBS prior to mounting and imaging on EVOS FL (Life Technologies) using […] for BODIPY and DAPI channel for NucBlue.

T1 sequence (Q9NR19 whole entry): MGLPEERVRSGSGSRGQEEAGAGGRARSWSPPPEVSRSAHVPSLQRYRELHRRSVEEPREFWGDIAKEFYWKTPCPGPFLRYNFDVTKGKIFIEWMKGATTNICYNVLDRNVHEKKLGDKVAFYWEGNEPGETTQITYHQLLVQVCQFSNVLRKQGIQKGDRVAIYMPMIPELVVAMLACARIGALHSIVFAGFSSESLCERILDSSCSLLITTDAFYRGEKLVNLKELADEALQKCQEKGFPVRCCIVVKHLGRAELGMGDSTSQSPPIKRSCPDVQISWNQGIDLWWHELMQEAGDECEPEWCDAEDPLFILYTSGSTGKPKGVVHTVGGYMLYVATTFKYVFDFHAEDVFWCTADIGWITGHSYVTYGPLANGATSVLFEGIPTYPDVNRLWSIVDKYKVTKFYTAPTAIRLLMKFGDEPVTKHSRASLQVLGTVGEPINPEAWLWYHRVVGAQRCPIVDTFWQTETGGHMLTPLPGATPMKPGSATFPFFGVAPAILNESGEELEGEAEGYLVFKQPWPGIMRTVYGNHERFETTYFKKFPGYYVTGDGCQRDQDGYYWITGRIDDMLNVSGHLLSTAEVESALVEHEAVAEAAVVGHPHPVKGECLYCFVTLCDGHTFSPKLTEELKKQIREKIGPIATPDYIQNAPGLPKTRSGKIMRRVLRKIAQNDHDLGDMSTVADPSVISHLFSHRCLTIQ

Usually koff stands for the rate constant with which the complex falls apart. The term kon denotes a measure of how fast the partners come together. For the molecule `N[C@H](C(=O)N1CCCC(c2ccccc2)(c2ccccc2)C1)C1CC1` [AD-8007], the “tumor growth of preformed tumors ex vivo” value in assay [1] is reported as “significantly reduced tumor growth of preformed tumors”. Moreover, the dissociation rate constant (koff) in assay [2] (1:1 binding model, n=3, read-out: koff) turned out to be 0.547 s⁻¹. In addition, in assay [2] (1:1 binding model, n=3, read-out: kon), the on-rate (kon) turned out to be 4790 M⁻¹ s⁻¹. The Kd amounted to 117 µM in assay [2] (25°C, Langmuir isotherm equilibrium fit, n=3, read-out: KD equilibrium) and 149 µM in assay [2] (global fit, n=3, read-out: KD kinetic/global). For the same molecule, in assay [3], the lipid droplet content entry is listed as “significantly reduced lipid droplet content”.
